Test results taken from patent US20230072683A1, “PYRIDO-PYRIMIDIN DERIVATIVES AND PHARMACEUTICAL COMPOSITION, FOR USE IN PREVENTING OR TREATING PI3 KINASE RELATED DISEASES, COMPRISING SAME AS ACTIVE INGREDIENT” (BORYUNG PHARMACEUTICAL CO., LTD, priority 2019, published 2023).
Where two headings read alike, the source gives them in different places.

Columns and labels:
[1] = target: PI3K-δ (PI3K(p1108/p857) (h)) (Homo sapiens, UniProt O00329); assay: Evaluation of inhibitory activity against PI3K-δ (HTRF kinase assay); type: biochemical; conditions: for inhibition at 0.1 µM: read-out: EXP_VALUE(% Inhibition) PI3K-δ 0.1 μM; for inhibition at 0.01 µM: compound concentration 0.01 μM, read-out: EXP_VALUE(% Inhibition) PI3K-δ 0.01 μM
Experimental: <Experimental Example 1> Evaluation of Inhibitory Activity Properties Against PI3K-δ
The following experiments were performed to verify the inhibitory activity against PI3K-δ with regard to each of the compounds of Examples 1 to 441 according to the present invention.
PI3K(p1108/p857) (h) was incubated in assay buffer comprising 10 μM phosphatidylinositol-4,5-bisphosphate and Mg/ATP (at a concentration as required). The reaction was initiated by the addition of a Mg/ATP mixture, and after incubation for 30 minutes at room temperature, a stop solution comprising EDTA and phosphatidylinositol-3,4,5-triphosphate was added to stop the reaction and carry out biotinylation.
A detection buffer comprising Eu (europium)-labelled anti-GST monoclonal antibody, GST-tagged GRP1 PH domain and streptavidin-allophycocyanin was added. A plate was read in a time-resolved fluorescence mode and a homogeneous time-resolved fluorescence (HTRF) signal was determined according to HTRF=10000×(Em 665 nm/Em 620 nm).

DNA-PK(h) = DNA-PK(h) (Homo sapiens, UniProt P78527); assay: Evaluation of inhibitory activity against DNA-PK (HTRF kinase assay, GST-cMyc-p53 substrate); type: biochemical; conditions: for inhibition at 0.1 µM: read-out: EXP_VALUE(% Inhibition) DNA-PK(h) 0.1 μM; for inhibition at 0.01 µM: compound concentration 0.01 μM, read-out: EXP_VALUE(% Inhibition) DNA-PK(h) 0.01 μM
Experimental: <Experimental Example 2> Evaluation of Inhibitory Activity Properties Against DNA-PK
The following experiments were performed to verify the inhibitory activity against DNA-PK with regard to each of the compounds of Examples 1 to 441 according to the present invention.
DNA-PK(h) was subjected to an isothermal treatment in an assay buffer comprising […] GST-cMyc-p53 and Mg/ATP (at a concentration as required). The reaction was initiated by the addition of a Mg/ATP mixture, and after incubation for 30 minutes at room temperature, a stop solution comprising EDTA was added to stop the reaction. A detection buffer comprising d2-labelled anti-GST monoclonal antibody and Europium-labelled anti-phospho Ser15 antibody for phosphorylated p53 was added. A plate was read in a time-resolved fluorescence mode and a homogeneous time-resolved fluorescence (HTRF) signal was determined according to HTRF=10000×(Em 665 nm/Em 620 nm).

Sequence of PI3K-δ (PI3K(p1108/p857) (h)) (O00329 whole entry): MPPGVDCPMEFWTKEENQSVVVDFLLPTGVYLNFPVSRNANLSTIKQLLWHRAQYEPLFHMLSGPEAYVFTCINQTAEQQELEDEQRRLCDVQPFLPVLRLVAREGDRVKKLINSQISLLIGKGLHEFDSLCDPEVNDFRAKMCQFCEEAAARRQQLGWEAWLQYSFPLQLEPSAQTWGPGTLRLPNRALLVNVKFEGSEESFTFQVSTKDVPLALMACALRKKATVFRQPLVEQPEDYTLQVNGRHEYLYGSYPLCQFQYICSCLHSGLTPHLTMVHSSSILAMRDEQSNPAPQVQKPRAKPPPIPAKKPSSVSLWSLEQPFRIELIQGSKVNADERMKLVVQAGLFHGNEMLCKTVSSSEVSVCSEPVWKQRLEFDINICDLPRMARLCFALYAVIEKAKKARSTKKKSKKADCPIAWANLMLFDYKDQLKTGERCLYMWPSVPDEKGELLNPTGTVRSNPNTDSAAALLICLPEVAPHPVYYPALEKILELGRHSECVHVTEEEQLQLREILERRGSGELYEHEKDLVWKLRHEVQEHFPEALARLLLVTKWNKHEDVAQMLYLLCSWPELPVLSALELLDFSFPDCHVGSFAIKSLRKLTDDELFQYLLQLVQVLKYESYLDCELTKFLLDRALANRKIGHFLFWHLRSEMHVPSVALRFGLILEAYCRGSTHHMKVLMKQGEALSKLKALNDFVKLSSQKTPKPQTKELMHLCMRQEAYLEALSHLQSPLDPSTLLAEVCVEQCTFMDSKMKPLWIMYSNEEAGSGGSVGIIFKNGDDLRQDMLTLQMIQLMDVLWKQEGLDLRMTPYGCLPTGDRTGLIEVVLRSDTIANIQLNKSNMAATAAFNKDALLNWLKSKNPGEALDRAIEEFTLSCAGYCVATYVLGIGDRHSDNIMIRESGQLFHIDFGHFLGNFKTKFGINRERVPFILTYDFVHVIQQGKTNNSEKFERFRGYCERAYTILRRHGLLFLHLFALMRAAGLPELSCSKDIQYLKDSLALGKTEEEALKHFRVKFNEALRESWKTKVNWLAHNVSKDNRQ
Sequence of PI3K-δ (PI3K(p1108/p857) (h)) (P27986 whole entry partner): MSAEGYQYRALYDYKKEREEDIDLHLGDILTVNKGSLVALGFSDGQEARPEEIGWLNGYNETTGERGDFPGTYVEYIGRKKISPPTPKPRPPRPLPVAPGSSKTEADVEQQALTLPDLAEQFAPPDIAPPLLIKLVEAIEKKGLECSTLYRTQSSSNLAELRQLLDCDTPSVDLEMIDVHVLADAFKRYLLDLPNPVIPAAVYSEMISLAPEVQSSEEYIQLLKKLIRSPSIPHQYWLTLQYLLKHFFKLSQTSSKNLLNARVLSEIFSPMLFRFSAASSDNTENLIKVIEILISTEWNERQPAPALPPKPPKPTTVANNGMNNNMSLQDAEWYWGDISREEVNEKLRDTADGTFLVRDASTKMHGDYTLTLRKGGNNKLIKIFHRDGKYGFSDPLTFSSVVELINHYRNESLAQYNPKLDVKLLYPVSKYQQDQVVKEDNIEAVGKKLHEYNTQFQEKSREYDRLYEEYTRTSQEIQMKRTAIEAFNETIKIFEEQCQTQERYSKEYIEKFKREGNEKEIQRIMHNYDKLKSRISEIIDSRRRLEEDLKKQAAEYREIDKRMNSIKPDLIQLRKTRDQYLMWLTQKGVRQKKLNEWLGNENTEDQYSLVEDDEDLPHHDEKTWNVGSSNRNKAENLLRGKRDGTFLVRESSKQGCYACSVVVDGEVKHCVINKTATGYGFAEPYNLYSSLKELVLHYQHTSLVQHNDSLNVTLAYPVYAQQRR

Row | inhibition at 0.1 µM ([1]; compound at 0.1 μM) [%] | inhibition at 0.1 µM (DNA-PK(h); compound at 0.1 μM) [%] | inhibition at 0.01 µM [1] [%] | inhibition at 0.1 µM ([1]; compound concentration 0.1 μM) [%] | inhibition at 0.01 µM (DNA-PK(h)) [%] | inhibition at 0.1 µM (DNA-PK(h); compound concentration 0.1 μM) [%] | Structure (SMILES)
1 | 14 | 23 | – | – | – | – | CC(C)[S@@](=N)(=O)c1cccc2c(Cl)c([C@H](C)Nc3ncnc4[nH]ccc(=O)c34)n(-c3ccccc3)c(=O)c12 [Example 410, 4-(((S)-1-(4-chloro-1-oxo-2-phenyl-8-((R)-propan-2-ylsulfonimidoyl)-1,2-dihydroisoquinolin-3-yl)ethyl)amino)pyrido[2,3-d]pyrimidin-5(8H)-one]
2 | – | – | 46 | 79 | 17 | 62 | C[C@H](Nc1ncnc2[nH]ccc(=O)c12)c1c(Cl)c2cccc(N3CCN(c4ccccn4)CC3)c2c(=O)n1-c1ccccc1 [Example 333, (S)-4-((1-(4-chloro-1-oxo-2-phenyl-8-(4-(pyridin-2-yl)piperazin-1-yl)-1,2-dihydroisoquinolin-3-yl)ethyl)amino)pyrido[2,3-d]pyrimidin-5(8H)-one]
3 | – | – | 5 | 27 | 14 | 54 | C[C@H](Nc1ncnc2[nH]ccc(=O)c12)c1c(Cl)c2cccc(SCc3ccc(Cl)cc3)c2c(=O)n1-c1ccccc1 [Example 369, (S)-4-((1-(4-chloro-8-((4-chlorobenzyl)thio)-1-oxo-2-phenyl-1,2-dihydroisoquinolin-3-yl)ethyl)amino)pyrido[2,3-d]pyrimidin-5(8H)-one]
4 | – | – | 52 | – | 43 | – | C[C@H](Nc1ncnc2[nH]ccc(=O)c12)c1c(Cl)c2cccc(CN3CCOCC3)c2c(=O)n1-c1ccccc1 [Example 245, (S)-4-((1-(4-chloro-8-(morpholinomethyl)-1-oxo-2-phenyl-1,2-dihydroisoquinolin-3-yl)ethyl)amino)pyrido[2,3-d]pyrimidin-5(8H)-one]
5 | 49 | 18 | – | – | – | – | CC(C)Oc1cnc(-c2cccc3c(Cl)c([C@H](C)Nc4ncnc5[nH]ccc(=O)c45)n(-c4ccccc4)c(=O)c23)cn1 [Example 376, (S)-4-((1-(4-chloro-8-(5-isopropoxypyrazin-2-yl)-1-oxo-2-phenyl-1,2-dihydroisoquinolin-3-yl)ethyl)amino)pyrido[2,3-d]pyrimidin-5(8H)-one]

Further lines, the compound ahead of its results:

Row | Structure (SMILES) | inhibition at 0.1 µM ([1]; compound at 0.1 μM) [%] | inhibition at 0.1 µM (DNA-PK(h); compound at 0.1 μM) [%] | inhibition at 0.01 µM [1] [%] | inhibition at 0.1 µM ([1]; compound concentration 0.1 μM) [%] | inhibition at 0.01 µM (DNA-PK(h)) [%] | inhibition at 0.1 µM (DNA-PK(h); compound concentration 0.1 μM) [%]
6 | C[C@H](Nc1ncnc2[nH]ccc(=O)c12)c1c(Cl)c2cccc(-c3ccc(N(C)C)cc3)c2c(=O)n1-c1ccccc1 [Example 72, (S)-4-((1-(4-chloro-8-(4-(dimethylamino)phenyl)-1-oxo-2-phenyl-1,2-dihydroisoquinolin-3-yl)ethyl)amino)pyrido[2,3-d]pyrimidin-5(8H)-one] | – | – | 99 | 112 | 58 | 96
7 | COCc1ncc(-c2cccc3c(Cl)c([C@H](C)Nc4ncnc5[nH]ccc(=O)c45)n(-c4ccccc4)c(=O)c23)cn1 [Example 55, (S)-4-((1-(4-chloro-8-(2-(methoxymethyl)pyrimidin-5-yl)-1-oxo-2-phenyl-1,2-dihydroisoquinolin-3-yl)ethyl)amino)pyrido[2,3-d]pyrimidin-5(8H)-one] | – | – | 59 | – | 44 | –
8 | C[C@H](Nc1ncnc2[nH]ccc(=O)c12)c1c(Cl)c2cccc(-c3ccc(OCC4CC4)nc3)c2c(=O)n1-c1ccccc1 [Example 163, (S)-4-((1-(4-chloro-8-(6-(cyclopropylmethoxy)pyridin-3-yl)-1-oxo-2-phenyl-1,2-dihydroisoquinolin-3-yl)ethyl)amino)pyrido[2,3-d]pyrimidin-5(8H)-one] | – | – | 70 | – | 45 | –
9 | C[C@H](Nc1ncnc2[nH]ccc(=O)c12)c1c(Cl)c2cccc(-c3ccc(C(F)(F)F)cc3)c2c(=O)n1-c1ccccc1 [Example 68, (S)-4-((1-(4-chloro-1-oxo-2-phenyl-8-(4-(trifluoromethyl)phenyl)-1,2-dihydroisoquinolin-3-yl)ethyl)amino)pyrido[2,3-d]pyrimidin-5(8H)-one] | – | – | – | – | 48 | 73
